Experiments:
[1] = test system: Pan02-Luc hepatic metastasis; experiment: Pan02-Luc liver metastasis model with bioluminescent imaging; type: in vivo, C57BL/6 mice; details: L001 or E7046 75 mg/kg p.o. daily, gemcitabine 25 mg/kg i.p. twice a week; for reduction of Pan02 cell liver metastases (bioluminescence of separated livers) / reduction in median luminescence signal compared with vehicle control group: n = 6; for reduction in median luminescence signal compared with vehicle control group: day 28; for median survival: n = 9, control 34 days
Procedure: (§1) Male C57/BL6 mice (6–8 weeks) were obtained from the National Rodent Laboratory Animal Resources (NRLAR, Shanghai, China). All mice were housed according to Institutional Animal Care and Use Committee guidelines and under a protocol approved by East China Normal University Ethics Committee with respect to animal care and welfare assurance. The bioluminescent liver metastasis mouse model was established as described previously. In brief, 2 × 10^6 Pan02/luc cells suspended in 50 μL of PBS were injected into mice spleen. […] Tumor metastasis was monitored by using an in vivo imaging system following intraperitoneal injection with D-Luciferin (2 mg per mouse; Promega). Bioluminescence intensity was recorded every seven days by a Xenogen IVIS-200 Optical in vivo imaging system (PerkinElmer; Waltham, MA, USA) for up to 4 weeks. The mouse body weight was measured every other day. Survival curve analysis was performed using GraphPad Prism 7.
Mouse liver tissues were harvested, fixed, paraffin embedded, and sectioned (8 μm). The tissues were permeabilized with 0.25% TritonX-100 at room temperature for 15 min, blocked with 1% FBS in PBS, and followed by incubation in primary antibodies at 4 °C overnight: rabbit anti-YAP (1:50 dilution, ab205270, abcam). The sections were then washed with PBS, incubated with anti-rabbit secondary antibody for 2 h and dyed with DAPI (10 μg/mL in PBS) for 5 min at room temperature. Slides were mounted using DPX Mountant (Electron Microscopy Sciences) and images were obtained by inverted fluorescence microscope (Olympus, Tokyo, Japan).

[2] = test system: YAP protein in Pan02 cells; experiment: Western blotting of YAP protein, Pan02; type: cell-based, murine; details: 10 μM PGE2
Procedure: (§2) Cells were lysed in RIPA lysis buffer with phosphatase and protease inhibitors (Calbiochem, San Diego, CA, USA) and denatured by heating at 100 °C for 10 min. Proteins were separated on 10% bis-tris polyacrylamide gels, transferred to nitrocellulose filter membranes (Millipore, Burlington, NJ, USA), and blocked with 5% BSA (Sangon Biotech, Shanghai, China). The membranes were incubated with the indicated primary antibodies overnight and subsequently probed with indicated secondary antibodies. Images of the blots were taken and analyzed by Odyssey imaging system (Li-COR Biosciences, Lincoln, NE, USA). The primary antibodies were listed as follows: Human-YAP (1:10,000 dilution, CY5381, abways); Mouse-YAP (1:1000 dilution, ab205270, abcam); EP4 (1:500 dilution, 101775, Cayman Chemical); GAPDH (1:10,000 dilution, Ab181602, abcam).

[3] = test system: YAP, CYR61 and CTGF mRNA in Pan02 cells; experiment: Real-time qPCR of YAP and YAP target genes, Pan02; type: cell-based, murine; details: 10 μM PGE2
Procedure: (§3) Total RNA was extracted from cells using TRIzol reagent. The cDNA was synthesized by RT-PCR kit (Vazyme Biotech, Nanjing, China). The band intensity was determined by the gel image analysis system (Bio-Rad, Hercules, CA, USA). SYBR Green-based qPCR (Yeason, Shanghai, China) was conducted subsequently. Relative mRNA levels of target genes were normalized with β-actin. The sequences of primers are listed in Supplementary Table S1. The raw data are listed in Supplementary Table S2.

Pan02 cells [4] = experiment: Transwell migration assay, Pan02; type: cell-based, murine; details: 0.1 μM PGE2; 16 h
Procedure: (§4) The transwell assay was conducted as described previously, using 8 μm pore transwell inserts (Corning, NY, USA). Cells were suspended in serum-free DMEM and seeded into upper chambers at appropriate density. The bottom chamber was filled with DMEM supplemented with 10% fetal bovine serum and indicated concentrations of PGE2. The compounds were added in both upper and bottom chambers. […] Migrated cells were counted and quantified using image J.

[5] = test system: YAP/TEAD reporter in Pan02 cells; experiment: TEAD-driven luciferase reporter assay, Pan02; type: cell-based, murine; details: 16 h
Procedure: (§5) CHO-K1 cells or pancreatic cancer cell lines were transfected with a cAMP responsive element (CRE) reporter or TEAD reporter using lipofectamine 2000 according to the manufacturer’s manual. […] Then, cells were lysed and luciferase activities were determined using Dual-Luciferase Reporter Assay Kit (Promega, Madison, WI, USA).

Pan02 cells [6] = experiment: Wound healing assay, Pan02; type: cell-based, murine; details: various concentrations of PGE2
Procedure: (§6) The wound healing assay was performed according to a standard protocol as described before. Briefly, Pan02 and BxPC-3 cells were grown as a confluent monolayer in 12-well plates (Corning, Corning, NY, USA) overnight and starved with serum-free medium for 6 h. The monolayer cells were disrupted with a P100 micropipette tip (JET BIOFIL, Guangzhou, China) and rinsed with PBS to remove detached cells. Medium containing different concentrations of compounds was added subsequently. After 24 h, treated cells were stained with 2 μM calcein-AM (Yeasen, Shanghai, China) for 20 min and washed with PBS. Photos were taken of the area in the scraped zone of each dish at 100× magnification by using an inverted fluorescent microscope (OLYMPUS, Tokyo, Japan).

BxPC-3 cells [7] = experiment: Transwell migration assay, BxPC-3; type: cell-based, human; details: 0.1 μM PGE2; 16 h
Procedure: as §4

[8] = test system: YAP/TEAD reporter in BxPC-3 cells; experiment: TEAD-driven luciferase reporter assay, BxPC-3; type: cell-based, human; details: 16 h
Procedure: as §5

[9] = test system: YAP protein in BxPC-3 cells; experiment: Western blotting of YAP protein, BxPC-3; type: cell-based, human; details: 10 μM PGE2
Procedure: as §2

BxPC-3 cells [10] = experiment: Wound healing assay, BxPC-3; type: cell-based, human; details: various concentrations of PGE2
Procedure: as §6

[11] = test system: YAP, CYR61, CTGF, Vimentin, Snail, E-cadherin mRNA in BxPC-3 cells; experiment: Real-time qPCR of YAP, YAP target genes and EMT markers, BxPC-3; type: cell-based, human; details: 10 μM PGE2
Procedure: as §3

[12] = Body weight of mice in Pan02-Luc metastasis model; type: in vivo, C57BL/6 mice; details: L001 75 mg/kg p.o. daily; gemcitabine 25 mg/kg i.p. twice a week; n = 6
Procedure: as §1

| SMILES | H&E imaging of liver sections [1] | reduction of Pan02 cell liver metastases (bioluminescence of separated livers) [1] | reduction in median luminescence signal compared with vehicle control group [1] | median survival [1] | level of intracellular YAP protein over time [2] | expression of YAP target genes CYR61 and CTGF over time [3] | increase in migrated Pan02 cells (Pan02 cells [4]) | max luminescence fold increase of TEAD-driven luciferase activity [5] | cell motility (wound closure) vs vehicle (Pan02 cells [6]) | increase in migrated BxPC-3 cells (BxPC-3 cells [7]) | max luminescence fold increase of TEAD-driven luciferase activity [8] | level of intracellular YAP protein over time [9] | cell motility (wound closure) vs vehicle (BxPC-3 cells [10]) | expression of YAP target genes CYR61 and CTGF over time [11] | body weight loss [12] |
| --- | --- | --- | --- | --- | --- | --- | --- | --- | --- | --- | --- | --- | --- | --- | --- |
| C[C@H](NC(=O)c1c(C(F)F)nn(C)c1Oc1cccc(C(F)(F)F)c1)c1ccc(C(=O)O)cc1 [E7046] | remarkably reduced metastatic clusters | 76.42% | 69.13% | 35 days |  |  |  |  |  |  |  |  |  |  |  |
| CCCCC[C@H](O)/C=C/[C@H]1[C@H](O)CC(=O)[C@@H]1C/C=C\CCCC(=O)O [PGE2, Prostaglandin E2, reference compound] |  |  |  |  | significantly increased | elevated | 1.2 fold | 1.87 fold | significantly promoted the motility | 2.5 fold | 1.56 fold | significantly increased | significantly promoted the motility | elevated |  |
| Nc1ccn([C@@H]2O[C@H](CO)[C@@H](O)C2(F)F)c(=O)n1 [gemcitabine] | remarkably reduced metastatic clusters | 93.2% | 91.79% | 46 days |  |  |  |  |  |  |  |  |  |  | barely found |

Reference: PMC8879074, “A Novel Small Molecular Prostaglandin Receptor EP4 Antagonist, L001, Suppresses Pancreatic Cancer Metastasis” (Molecules, 2022)
